target: Kv1.3 potassium channel (Homo sapiens, UniProt P22001); test: Whole-cell patch-clamp assay for inhibitory activity against Kv1.3 (peak current); type: cell-based; conditions: HEK293 cells stably expressing Kv1.3, patch-clamp
Source text: The voltage stimulation protocol for recording whole-cell Kv1.X potassium currents via patch-clamp was as follows. After formation of a whole-cell seal, the cell membrane voltage was clamped at −80 mV, and then stepped to +40 mV for 500 ms. […] The test data were acquired by EPC-10 amplifier (HEKA) and stored in the PatchMaster (HEKA) software. Recording electrodes were drawn from capillary glass tubes using a microelectrode puller. Under an inverted microscope, the recording electrode was brought into contact with the cell surface by manipulating a microelectrode manipulator. Negative-pressure suction was applied to form a GΩ seal. After formation of the […], a rapid capacitance compensation was given. The application of negative pressure was continued to rupture the cell membrane, forming a whole-cell recording mode. Then, a slow capacitance compensation was given, and the membrane capacitance and series resistance were recorded. No current leakage compensation was provided. Once the whole-cell recorded Kv1.X current stabilized, drug administration was started. Each drug concentration was allowed to act for 5 min (or until the current reached a steady state) before the next concentration was tested. Multiple concentrations were tested for each test compound. The cover glass plated with the cells was placed in a recording bath of the inverted microscope. The test compound and the compound-free extracellular fluid were allowed to sequentially flow through the recording bath from low concentrations to high concentrations using a gravity perfusion method, thus acting on the cells, and liquid exchange was performed using a vacuum pump during recording. For each cell, the current detected in the compound-free extracellular liquid was used as its own control group. The test was independently repeated three times using at least three cells per concentration. All electrophysiological experiments were performed at room temperature. […] First, the peak current after the action of each drug concentration and the peak current of the blank control were standardized and then the inhibition rate corresponding to each drug concentration was calculated Subsequently, the mean, standard deviation (SD), and standard error (SE) were calculated for the inhibition rate corresponding to each concentration. Using the above equation, the IC50 value for each compound was calculated, and the dose-dependent effect was subjected to non-linear fitting, where IC50 is the half maximal inhibitory concentration. The IC50 calculation and the curve fitting were performed using the GraphPad Prism software.

Kv1.3 potassium channel, sequence (P22001 whole entry): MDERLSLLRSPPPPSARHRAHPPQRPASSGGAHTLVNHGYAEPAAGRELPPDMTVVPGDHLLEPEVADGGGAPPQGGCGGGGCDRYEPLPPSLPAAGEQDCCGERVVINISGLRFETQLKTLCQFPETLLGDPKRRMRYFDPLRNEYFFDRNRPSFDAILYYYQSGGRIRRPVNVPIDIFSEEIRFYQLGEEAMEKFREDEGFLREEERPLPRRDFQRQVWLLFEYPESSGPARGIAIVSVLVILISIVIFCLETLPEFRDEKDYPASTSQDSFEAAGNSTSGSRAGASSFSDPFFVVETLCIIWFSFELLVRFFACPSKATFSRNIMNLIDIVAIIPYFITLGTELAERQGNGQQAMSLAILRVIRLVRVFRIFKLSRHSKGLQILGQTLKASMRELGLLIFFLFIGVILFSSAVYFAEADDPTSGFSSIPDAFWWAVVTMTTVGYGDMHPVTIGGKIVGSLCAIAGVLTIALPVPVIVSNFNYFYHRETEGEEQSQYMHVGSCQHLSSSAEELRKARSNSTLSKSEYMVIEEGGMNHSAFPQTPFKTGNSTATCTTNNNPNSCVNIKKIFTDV

`CC(C)N1CCC(n2nc3n(c2=O)C[C@H](c2c(O)ccc(Cl)c2Cl)C3)CC1` [Example 103, (S)-6-(2,3-dichloro-6-hydroxyphenyl)-2-(1-isopropylpiperidin-4-yl)-2,5,6,7-tetrahydro-3H-pyrrolo[2,1-c][1,2,4]triazol-3-one] and `CC(C)N1CCC(n2nc3n(c2=O)C[C@@H](c2c(O)ccc(Cl)c2Cl)C3)CC1` [Example 104, (R)-6-(2,3-dichloro-6-hydroxyphenyl)-2-(1-isopropylpiperidin-4-yl)-2,5,6,7-tetrahydro-3H-pyrrolo[2,1-c][1,2,4]triazol-3-one] are within 1.5-fold of each other in IC50: 7.68 nM for the first, 6.93 nM for the second.

Compared with `Oc1ccc(Cl)c(Cl)c1[C@@H]1Cc2nnc(-c3ccnc(C(F)(F)F)c3)n2C1` [Example 111, (S)-3,4-Dichloro-2-(3-(2-(trifluoromethyl)pyridin-4-yl)-6,7-dihydro-5H-pyrrolo[2,1-c][1,2,4]triazol-6-yl)phenol], `COc1cccc(-c2nnc3n2C[C@@H](c2c(O)ccc(Cl)c2Cl)C3)c1` [Example 77, (R)-3,4-dichloro-2-(3-(3-methoxyphenyl)-6,7-dihydro-5H-pyrrolo[2,1-c][1,2,4]triazol-6-yl)phenol] is 3.1-fold higher in IC50: 14.4 nM for the first, 45.2 nM for the second.

Compared with `Oc1ccc(Cl)c(Cl)c1[C@@H]1Cc2nnc(C3CCNCC3)n2C1` [Example 35, (S)-3,4-Dichloro-2-(3-(piperidin-4-yl)-6,7-dihydro-5H-pyrrolo[2,1-c][1,2,4]triazol-6-yl)phenol], `Oc1ccc(Cl)c(Cl)c1[C@@H]1Cc2nnc([C@H]3CCNC3)n2C1` [Example 47, 3,4-Dichloro-2-((S)-3-((S)-pyrrolidin-3-yl)-6,7-dihydro-5H-pyrrolo[2,1-c][1,2,4]triazol-6-yl)phenol] is 2.4-fold lower in IC50: 3.15 nM for the first, 1.3 nM for the second.

`CCc1nn(C)c2c1C[C@@H](c1c(O)ccc(Cl)c1Cl)C2` [Example 116, (R)-3,4-dichloro-2-(3-ethyl-1-methyl-1,4,5,6-tetrahydrocyclopenta[c]pyrazol-5-yl)phenol] and `CCn1ncc2c1C[C@@H](c1c(O)ccc(Cl)c1Cl)C2` [Example 117, (S)-3,4-dichloro-2-(1-ethyl-1,4,5,6-tetrahydrocyclopenta[c]pyrazol-5-yl)phenol] are within 1.5-fold of each other in IC50: 44.1 nM for the first, 65 nM for the second.

First: CC(C)N1CCN(C(=O)c2cnc3n2C[C@H](c2c(O)ccc(Cl)c2Cl)C3)CC1 [Example 121, (S)-(6-(2,3-Dichloro-6-hydroxyphenyl)-6,7-dihydro-5H-pyrrolo[1,2-a]imidazol-3-yl)(4-isopropylpiperazin-1-yl)methanone]
Second: CC(C)N1CCN(C(=O)c2nnc3n2CC(c2c(O)ccc(Cl)c2Cl)C3)CC1 (stereo not shown) [Example 14, (6-(2,3-Dichloro-6-hydroxyphenyl)-6,7-dihydro-5H-pyrrolo[2,1-c][1,2,4]triazol-3-yl)(4-isopropylpiperazin-1-yl)methanone]
The IC50 of the first is 2-fold lower: 9.68 nM for the first, 19.6 nM for the second. The first is the more potent here.

`O=C1C[C@@H](c2nnc3n2C[C@H](c2c(O)ccc(Cl)c2Cl)C3)CN1` [Example 52, (R)-4-((S)-6-(2.3-Dichloro-6-hydroxyphenyl)-6,7-dihydro-5H-pyrrolo[2,1-c][1,2,4]triazol-3-yl)pyrrolidin-2-one] and `O=C1CC(c2nnc3n2C[C@H](c2c(O)ccc(Cl)c2Cl)C3)CN1` (single isomer, unassigned) [Example 53] are within 1.5-fold of each other in IC50: 14 nM for the first, 15 nM for the second.

`Oc1ccc(Cl)c(Cl)c1[C@@H]1Cc2nnc(C34COC(C3)C4)n2C1` [Example 66, (S)-2-(3-(2-Oxabicyclo[2.1.1]hexan-4-yl)-6,7-dihydro-5H-pyrrolo[2,1-c][1,2,4]triazol-6-yl)-3,4-dichlorophenol] and `Oc1ccc(Cl)c(Cl)c1[C@@H]1Cc2nnc([C@]34COCC3C4)n2C1` (stereo partly drawn) [Example 73, 2-((6S)-3-((1R)-3-oxabicyclo[3.1.0]hexan-1-yl)-6,7-dihydro-5H-pyrrolo[2,1-c][1,2,4]triazol-6-yl)-3,4-dichlorophenol] are within 1.5-fold of each other in IC50: 33.3 nM for the first, 24.7 nM for the second.

First: Oc1ccc(Cl)c(Cl)c1[C@@H]1Cc2nnc(C3CCOCC3)n2C1 [Example 33, (S)-3,4-Dichloro-2-(3-(tetrahydro-2H-pyran-4-yl)-6,7-dihydro-5H-pyrrolo[2,1-c][1,2,4]triazol-6-yl)phenol]
Second: Oc1ccc(Cl)c(Cl)c1[C@@H]1Cc2nnc([C@H]3CCOC3)n2C1 [Example 55, 3,4-dichloro-2-((S)-3-((R)-tetrahydrofuran-3-yl)-6,7-dihydro-5H-pyrrolo[2,1-c][1,2,4]triazol-6-yl)phenol]
The IC50 of the first is 4-fold higher: 47.8 nM for the first, 12 nM for the second.

First: CC1(C)CC(c2nnc3n2CC(c2c(O)ccc(Cl)c2Cl)C3)CC(C)(C)N1 (stereo not shown) [Example 88, 3,4-Dichloro-2-(3-(2,2,6,6-tetramethylpiperidin-4-yl)-6,7-dihydro-5H-pyrrolo[2,1-c][1,2,4]triazol-6-yl)phenol]
Second: Oc1ccc(Cl)c(Cl)c1[C@@H]1Cc2nnc(C3CCCNC3)n2C1 (single isomer, unassigned) [Example 58]
The IC50 of the first is 4.9-fold higher: 58.6 nM for the first, 12 nM for the second. The second is the more potent here.

`CC(=O)N1CCC(c2nnc3n2C[C@H](c2c(O)ccc(Cl)c2Cl)C3)CC1` [Example 37, (S)-1-(4-(6-(2,3-Dichloro-6-hydroxyphenyl)-6,7-dihydro-5H-pyrrolo[2,1-c][1,2,4]triazol-3-yl)piperidin-1-yl)ethan-1-one] and `CC(=O)N1CC[C@@H](c2nnc3n2C[C@H](c2c(O)ccc(Cl)c2Cl)C3)C1` [Example 81, 1-((R)-3-((S)-6-(2,3-Dichloro-6-hydroxyphenyl)-6,7-dihydro-5H-pyrrolo[2,1-c][1,2,4]triazol-3-yl)pyrrolidin-1-yl)ethan-1-one] are within 1.5-fold of each other in IC50: 12.7 nM for the first, 11.3 nM for the second.

`O=c1n([C@H]2CCOC2)nc2n1C[C@H](c1c(O)ccc(Cl)c1Cl)C2` [Example 109, (S)-6-(2,3-Dichloro-6-hydroxyphenyl)-2-((S)-tetrahydrofuran-3-yl)-2,5,6,7-tetrahydro-3H-pyrrolo[2,1-c][1,2,4]triazol-3-one] and `O=c1n(CC(F)F)nc2n1C[C@H](c1c(O)ccc(Cl)c1Cl)C2` [Example 107, (S)-6-(2,3-Dichloro-6-hydroxyphenyl)-2-(2,2-difluoroethyl)-2,5,6,7-tetrahydro-3H-pyrrolo[2,1-c][1,2,4]triazol-3-one] are within 1.5-fold of each other in IC50: 31.7 nM for the first, 31 nM for the second.

Going from `Oc1ccc(Cl)c(Cl)c1[C@@H]1Cc2nnc(-c3cccc4[nH]ncc34)n2C1` [Example 41, (S)-2-(3-(1H-Indazol-4-yl)-6,7-dihydro-5H-pyrrolo[2,1-c][1,2,4]triazol-6-yl)-3,4-dichlorophenol] to `OCCn1cc(-c2nnc3n2C[C@H](c2c(O)ccc(Cl)c2Cl)C3)cn1` [Example 44, (S)-3,4-Dichloro-2-(3-(1-(2-hydroxyethyl)-1H-pyrazol-4-yl)-6,7-dihydro-5H-pyrrolo[2,1-c][1,2,4]triazol-6-yl)phenol], the IC50 falls from 23.8 nM to 8.11 nM (2.9-fold). The second is the more potent here.

Going from `CC(C)N1CCC(N2CC[C@@H](c3nnc4n3C[C@H](c3c(O)ccc(Cl)c3Cl)C4)C2)CC1` [Example 82, 3,4-Dichloro-2-((S)-3-((R)-1-(1-isopropylpiperidin-4-yl)pyrrolidin-3-yl)-6,7-dihydro-5H-pyrrolo[2,1-c][1,2,4]triazol-6-yl)phenol] to `CC(C)N1CC[C@@H](c2nnc3n2C[C@H](c2c(O)ccc(Cl)c2Cl)C3)C1` [Example 80, 3,4-Dichloro-2-((S)-3-((R)-1-isopropylpyrrolidin-3-yl)-6,7-dihydro-5H-pyrrolo[2,1-c][1,2,4]triazol-6-yl)phenol], the IC50 falls from 5.01 nM to 2.14 nM (2.3-fold). The second is the more potent here.

Compared with `O=C(C1CC1)N1CCC(c2nnc3n2CC(c2c(O)ccc(Cl)c2Cl)C3)CC1` (stereo not shown) [Example 10, Cyclopropyl(4-(6-(2,3-dichloro-6-hydroxyphenyl)-6,7-dihydro-5H-pyrrolo[2,1-c][1,2,4]triazol-3-yl)piperidin-1-yl)methanone], `CC(C)N1CCC(c2cnc3n2CC(c2c(O)ccc(Cl)c2Cl)C3)CC1` (single isomer, unassigned) [Example 94] is 4.5-fold lower in IC50: 27.7 nM for the first, 6.09 nM for the second.

First: C[C@]1(c2nnc3n2C[C@H](c2c(O)ccc(Cl)c2Cl)C3)CCOC1 [Example 65, 3,4-dichloro-2-((S)-3-((R)-3-methyltetrahydrofuran-3-yl)-6,7-dihydro-5H-pyrrolo[2,1-c][1,2,4]triazol-6-yl)phenol]
Second: Oc1ccc(Cl)c(Cl)c1[C@@H]1Cc2nnc(CC(F)(F)F)n2C1 [Example 87, (S)-3,4-Dichloro-2-(3-(2,2,2-trifluoroethyl)-6,7-dihydro-5H-pyrrolo[2,1-c][1,2,4]triazol-6-yl)phenol]
The IC50 of the first is 2.5-fold higher: 51.7 nM for the first, 20.7 nM for the second.

`Oc1ccc(Br)c(Br)c1C1Cc2nnc([C@@H]3CCOC3)n2C1` (stereo partly drawn) [Example 119, 3,4-Dibromo-2-(3-((S)-tetrahydrofuran-3-yl)-6,7-dihydro-5H-pyrrolo[2,1-c][1,2,4]triazol-6-yl)phenol] was tested, and the IC50 was 6.54 nM.

— patent US20260224536A1, “ARYL HETEROCYCLIC KV1.3 INHIBITOR, PREPARATION METHOD THEREFOR, AND USE THEREOF” (SHANGHAI SHENSHI WISE TECHNOLOGY CO., LTD., priority 2022, published 2026)
